Here are results for 13 compounds from patent US12473582B2, “Method and agents for detecting luciferase activity” (LIGHT BIO, INC., priority 2015, dated 2025).

The target of series [1] is T1, cold extract from Neonothopanus nambi (Neonothopanus nambi, UniProt A0A3G9K5C8).
T1 construct: an extract comprising the enzymes of the fungal bioluminescent system and free from low-molecular-weight components; from tissue; host or cells: Neonothopanus nambi mycelium, crude cold extract (30000 g supernatant of the homogenate)
Put plainly: Bioluminescent test of hot-extract HPLC fractions with cold extract and NADPH. The format is biochemical. To be noted: cold extract from N. nambi, NADPH; values normalised against optical density at 360 nm. The protocol:
The obtained extracts were tested in a bioluminescent test described by Oliveira and Stevani (Photochem. Photobiol. Sci., 2009, 8, 1416) using a cold extract from Neonothopanus nambi.
In order to obtain a cold extract, the mycelium was washed to get rid of culture medium, then, it was put into a 200-fold amount of distilled water for 15 hours at 26° C. Thereafter, the mycelium was separated from water by centrifugation, then, it was homogenized on ice in 10 volumes of 0.2 M phosphate buffer, pH 7.5 and sonicated on ice for 10 minutes using Ultrasonic disintegrator UD-20. The homogenate was centrifuged at 30000 g at […] for 20 minutes. The obtained cold extract was stored at −20° C.
500 μl of the following components were mixed for a bioluminescent test: 25 μL of cold extract, 2 μL of hot extract, 442 μL 0.2 M phosphate buffer, pH 7.5, 1 μL 1 M DTT and 10 μL 1% Triton X-100. The bioluminescent reaction was initiated in a Glomax 20/20 (Promega, USA) luminometer cuvette by adding 20 μL 20 mM NADPH. Luminescence was measured at 23±1° C.
The maximum luminescence of fractions 1-6 was 24000, 80, 6670, 40, 1300 and 1000 correspondingly (a signal-to-noise ratio of the luminometer, the values were normalised against optical density at 360 nm).

Series [2] addresses T2, luciferase and hispidin-3-hydroxylase (cold extract of N. nambi) (Neonothopanus nambi, UniProt A0A3G9K5C8).
T2 construct: an extract comprising the enzymes of the fungal bioluminescent system and free from low-molecular-weight components; from tissue; host or cells: Neonothopanus nambi mycelium, crude cold extract (30000 g supernatant of the homogenate)
Put plainly: Dependence of maximal bioluminescence (Imax) on reagent concentration in the reaction mixture. The format is biochemical. Here is the method:
The concentrated hispidin solution was used to produce dilutions of 1/50, 1/500, 1/5000, 1/50000 in an aqueous solution with 0.1% Triton X-100 and 0.1% formic acid.
The reaction mixture in the bioluminometer cuvette comprised: 100 μL 0.1 M phosphate buffer, pH 7.5, containing 0.1 mM DTT, 4 μL of the cold extract of N. nambi, 1-5 μL of hispidin dilutions. The bioluminescent reaction was activated by adding 4 μL 10 mM NADPH. Bioluminescence was measured at 25° C.
The reaction mixture in the bioluminometer cuvette comprised: 100 μL 0.1 M phosphate buffer, pH 7.5, comprising 0.1 mM DTT, 4 μL of the cold extract of N. nambi, 4 μL 64 μM hispidin solution and various amounts of Triton X-100 detergent. The bioluminescent reaction was activated by adding 4 μL 10 mM NADPH. […] The optimal detergent concentration in the reaction mixture was determined as 0.015 to 0.03%. The maximum detergent concentration at which bioluminescence was observed was 0.5%.
The reaction mixture in the bioluminometer cuvette comprised: 100 μL 0.1 M phosphate buffer, pH 7.5, comprising 0.1 mM DTT, 4 μL of the cold extract of N. nambi, 4 μL […] hispidin solution. The bioluminescent reaction was activated by adding various amounts of NADPH. […] The minimum NADPH concentration which provided detectable bioluminescence was 20 μM.
The reaction mixture in the bioluminometer cuvette comprised: 100 μL 0.1 M phosphate buffer, pH 7.5, comprising various concentrations of DTT, 4 μL of the cold extract of N. nambi, 4 μL 64 μM hispidin solution. The bioluminescent reaction was activated by adding 4 μL 10 mM NADPH. […] The optimal DTT concentration in the reaction mixture was 0.5 to 3 mM. The maximum DTT concentration which provided bioluminescence was 10 mM.

For series [3], the system named is luciferase and hispidin-3-hydroxylase. Put plainly: Detection of luciferase and hispidin-3-hydroxylase in fungal cold extracts with hispidin and NAD(P)H. The format is biochemical. Here is the method:
Commercially available hispidin (Sigma-Aldrich, USA) was used for detecting luciferase and hispidin-3-hydroxylase in the cold extracts obtained from the mycelia of Neonothopanus nambi, Mycena citricolor, Panellus stipticus, and Armillaria borealis as described in Example 1.
Hispidin was dissolved in DMSO to a final concentration of 8 mg/ml (32 mM). Then, the obtained concentrated solution was diluted 500-fold by aqueous solution containing 0.1% Triton X-100 and 0.1% formic acid. Hispidin concentration in the obtained working solution was 64 μM.
The reaction mixture in Glomax 20/20 cuvette (Promega, USA) comprised: 100 μL 0.2 M phosphate buffer, pH 7.5, comprising 0.1 mM DTT and 0.1 mM EDTA, 1-5 μL of fungal extract, 4 μL 64 μM hispidin solution. The luminescent reaction was initiated by adding 4 μL 10 mM NADPH.
In a different experiment, the same samples were tested for the presence of luciferase and hispidin-3-hydroxylase activities as described above with the exception that NADH was used (instead of NADPH). In this case, luminescence was 2-3 times lower than when using NADPH.

The nature of series [4]: Stability of 3-hydroxyhispidin. The format is physicochemical.
Series [5] has as its system luciferase. Put plainly: Detection of luciferase in microsomal fractions of cold extracts with 3-hydroxyhispidin. The format is biochemical. Conditions: aliquots with 0.006 ng and 0.16 ng of luciferin; microsomal fractions of four fungi. Here is the method: 3-hydroxyhispidin was obtained as described in Example 3. The microsomal fractions of the cold extracts of Neonothopanus nambi, Mycena citricolor, Panellus stipticus and Armillaria borealis were used as biological samples. The cold extracts were obtained as described in Example 2. The microsomal fractions were obtained as described in Example 3.
10 μg of 3-hydroxyhispidin were dissolved in 1 mL 50% water-acetonitrile mixture containing 0.1% formic acid.
During the experiment, in each case, the background luminescence of the microsomal fraction was measured in the first place, and then, at 0.7 and 1.55 minutes, 3-hydroxyhispidin solution aliquots were added, which contained 0.006 ng and 0.16 ng of luciferin, correspondingly.

Series [6] in a line: Solubility of 3-hydroxyhispidin. The format is physicochemical.
Series [7] concerns fungal bioluminescence. Conditions: isolated from Pleurotus japonicus; cited from earlier work.
The mark [8] stands for this setting: hispidin, NADPH, cold extract of N. nambi.
The mark [9] stands for this setting: 0.1 M phosphate buffer pH 7.5, 0.1 mM DTT, NADPH, 25° C.

T1 sequence (A0A3G9K5C8 whole entry): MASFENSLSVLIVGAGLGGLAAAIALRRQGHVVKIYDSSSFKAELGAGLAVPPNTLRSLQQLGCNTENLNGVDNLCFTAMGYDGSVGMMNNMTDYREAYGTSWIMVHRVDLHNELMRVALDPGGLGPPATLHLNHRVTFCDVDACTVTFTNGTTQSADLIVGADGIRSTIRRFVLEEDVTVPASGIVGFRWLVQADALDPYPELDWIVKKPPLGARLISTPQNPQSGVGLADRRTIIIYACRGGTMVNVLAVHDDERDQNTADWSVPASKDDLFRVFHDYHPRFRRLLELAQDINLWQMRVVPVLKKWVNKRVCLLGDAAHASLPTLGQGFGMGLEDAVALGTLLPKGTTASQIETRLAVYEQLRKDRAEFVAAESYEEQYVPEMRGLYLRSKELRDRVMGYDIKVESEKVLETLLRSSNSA
T2 sequence (A0A3G9K5C8 whole entry): as above

For the compound 3.3-bishispidinyl [Fraction 2], the maximum luminescence in series [1] was 80 signal-to-noise ratio of the luminometer.
For `O[C@H](CS)[C@H](O)CS` (racemic) [DTT, dithiothreitol, reference compound], the “maximum DTT concentration which provided bioluminescence” value in series [2] (setting [8]) was 10 mM.
Consider `O=c1cc(O)cc(/C=C/c2ccc(O)c(O)c2)o1` (single isomer, unassigned) [Fraction 1, (E)-6-(3,4-dihydroxystyryl)-4-hydroxy-2H-pyran-2-one], for which the maximum luminescence in series [1] is 24000 signal-to-noise ratio of the luminometer. Also, in series [2] (setting [9]), the “hispidin concentration at which detectable luminescence was observed” value is at least 0.002 µM and the “optimal hispidin concentration in the reaction mixture” value turned out to be 2.5 µM. For the same compound, the “hispidin concentration at which inhibition of the luminescent reaction was observed” value in series [2] (probably substrate inhibition) is listed as “more than 5 μM”. For the same compound, the “luminescence of cold extracts after adding hispidin and NADPH” value in series [3] (4 μL 64 μM hispidin, 4 μL 10 mM NADPH, cold extracts of four fungi) is on record as “Luminescence was detected in all cases”.
As for `O=c1cc(O)cc(/C=C\c2ccc(O)c(O)c2)o1` (single isomer, unassigned) [Fraction 3, (Z)-6-(3,4-dihydroxystyryl)-4-hydroxy-2H-pyran-2-one], the maximum luminescence in series [1] is 6670 signal-to-noise ratio of the luminometer.
On to `O=c1cc(O)cc(/C=C/c2ccc(O)cc2)o1` (single isomer, unassigned) [Fraction 5, (E)-4-hydroxy-6-(4-hydroxystyryl)-2H-pyran-2-one], for which the maximum luminescence in series [1] was 1300 signal-to-noise ratio of the luminometer. Further, the “maximum intensity of sample luminescence, times lower as compared to using hispidin” value in series [3] (bisnoryangonin added instead of hispidin) is “approximately 10 times”.
For `O=c1cc(O)cc(/C=C\c2ccc(O)cc2)o1` (single isomer, unassigned) [Fraction 6, (Z)-4-hydroxy-6-(4-hydroxystyryl)-2H-pyran-2-one], the maximum luminescence in series [1] was 1000 signal-to-noise ratio of the luminometer.
Regarding `O=c1oc(/C=C/c2ccc(O)c(O)c2)cc(O)c1O` [3-hydroxyhispidin, (E)-6-(3,4-dihydroxystyryl)-3,4-dihydroxy-2H-pyran-2-one], the “storage time with no activity loss” value in series [4] (lyophilized, −20° C., often no less than 60 days, normally no less than a year) is on record as “no less than 30 days”. Moreover, the thermal stability entry in series [4] (water solution) is “can sustain short-term boiling”. Also, the stability during chromatography result in series [4] (water-acetonitrile mixture with formic acid, final concentration 0.1%) is recorded as “shows stability”. In series [5], the “luminescence of microsomal fractions after adding 3-hydroxyhispidin” value is on record as “luminescence was detected”. In addition, the “solubility in aprotic solvents” value in series [6] (DMSO, acetonitrile, acetone, etc.) was “readily soluble”. In addition, in series [6] (water), the solubility in water entry is reported as “moderately soluble”.
In the case of `O=c1cc(O)cc(C=Cc2cc(O)c(O)cc2-c2c(O)cc(C=Cc3ccc(O)cc3)oc2=O)o1` [Fraction 4, 3-bisnoryangonyl-14-hispidin], in series [1], the maximum luminescence is reported as 40 signal-to-noise ratio of the luminometer.
With `CC1=C2C(=C[C@@](C)(CO)[C@@H]2O)C(=O)[C@](C)(O)C12CC2` [illudin S], the bioluminescent activity result in series [7] was “did not show bioluminescent activity”.
As for `Cc1cc2nc3c(=O)[nH]c(=O)nc-3n(C[C@H](O)[C@H](O)[C@H](O)COC3OC(CO)C(O)C3O)c2cc1C` (some centres unmarked) [lampteroflavin], the bioluminescent activity result in series [7] is on record as “did not show bioluminescent activity”.
Regarding `Cc1cc2nc3c(=O)[nH]c(=O)nc-3n(C[C@H](O)[C@H](O)[C@H](O)CO)c2cc1C` [riboflavin], in series [7], the bioluminescent activity result was “did not show bioluminescent activity”.
As to Triton X-100 [reference compound], in series [2] (setting [8]), the “maximum detergent concentration at which bioluminescence was observed” value turned out to be 0.5%.
With “nicotinamide adenine dinucleotide phosphate [NADPH, reference compound]”, the “minimum NADPH concentration which provided detectable bioluminescence” value in series [2] (hispidin, cold extract of N. nambi, pH 7.5) was 20 µM.
